According to US20240263138A1, “METHODS FOR PREPARING A FOOD INGREDIENT AND COMPOSITIONS PRODUCED THEREBY” (SuperMeat the Essence of Meat Ltd., priority 2021, published 2024):

Test system: SM ES cells
Experiment: Direct differentiation of SM ES cells cultured with oleic acid
Assay type: cell-based, chicken
Conditions: culturing in the presence of 300 uM, direct differentiation protocol
Procedure: As used herein “direct differentiation protocol” refers to the addition of FAs at high concentrations to a stem cell culture e.g., pluripotent stem cells, (above 25 uM or above 100 uM, when serum is absent or present in the culture) stem cells in order to allow the cells to accumulate fat. […] Next step was to test the ability to control the fatty acid profile of SM ES cells by growing the cells in the presence of certain or several fatty acids (FAs), dependent on the selected edible species.

CCCCCCCC/C=C\CCCCCCCC(=O)O [oleic acid]
proportion of oleic acid (OA) within cells: double
